From US10028960B2, “Pyrimidine compounds as JAK kinase inhibitors” (THERAVANCE BIOPHARMA R&D IP, LLC, priority 2016, dated 2018)
Read-outs that look alike come from different tables or passages of the source.

Key:
[1] = tested on: mouse splenic NK, B and T cells; settings: in vivo, po
Experimental: Depletion of mouse splenic cells is an experimental model of immunosuppression (Kudlacz et al., Am. J. of Transplantation, 2004, 4, 51-57). The compound of Example 2 was assessed in the mouse splenic cell model following the same treatment paradigm as that used in the oxazolone-induced colitis model (Assay 8).
The compound (1, 10 and 100 mg/kg, BID) and tofacitinib (30 and 60 mg/kg, BID) as a positive control were dosed orally for three days to naïve mice. Spleens were harvested 1 h post last dose and crushed immediately for cell subtype staining. Prior to fixation, fluorophore-labelled antibodies for CD19 (FITC; B cells), CD3e (PE; pan T cells) and DX5 (APC; NK cells) were incubated with splenocyte samples from each animal to allow for simultaneous, multiple subtype % analysis on the flow cytometer. The number of total spleen cells for each animal was measured by Scepter™ 2.0 Handheld Automated Cell Counter.
The absolute number of lymphocyte subtype population (e.g., splenic B, T and NK cells) was calculated from the percentage of each subtype times total spleen cells for each animal. A one way ANOVA, with Dunnett's post hoc test, was used to compare the splenic lymphocytes number of the vehicle and test compound groups. The a level was set at p<0.05. Data were presented as the mean±SEM for each group.

JAK1 = JAK1 (Homo sapiens (Human), UniProt P23458); test: LanthaScreen JAK biochemical assay, JAK1
JAK1, sequence (P23458 whole entry): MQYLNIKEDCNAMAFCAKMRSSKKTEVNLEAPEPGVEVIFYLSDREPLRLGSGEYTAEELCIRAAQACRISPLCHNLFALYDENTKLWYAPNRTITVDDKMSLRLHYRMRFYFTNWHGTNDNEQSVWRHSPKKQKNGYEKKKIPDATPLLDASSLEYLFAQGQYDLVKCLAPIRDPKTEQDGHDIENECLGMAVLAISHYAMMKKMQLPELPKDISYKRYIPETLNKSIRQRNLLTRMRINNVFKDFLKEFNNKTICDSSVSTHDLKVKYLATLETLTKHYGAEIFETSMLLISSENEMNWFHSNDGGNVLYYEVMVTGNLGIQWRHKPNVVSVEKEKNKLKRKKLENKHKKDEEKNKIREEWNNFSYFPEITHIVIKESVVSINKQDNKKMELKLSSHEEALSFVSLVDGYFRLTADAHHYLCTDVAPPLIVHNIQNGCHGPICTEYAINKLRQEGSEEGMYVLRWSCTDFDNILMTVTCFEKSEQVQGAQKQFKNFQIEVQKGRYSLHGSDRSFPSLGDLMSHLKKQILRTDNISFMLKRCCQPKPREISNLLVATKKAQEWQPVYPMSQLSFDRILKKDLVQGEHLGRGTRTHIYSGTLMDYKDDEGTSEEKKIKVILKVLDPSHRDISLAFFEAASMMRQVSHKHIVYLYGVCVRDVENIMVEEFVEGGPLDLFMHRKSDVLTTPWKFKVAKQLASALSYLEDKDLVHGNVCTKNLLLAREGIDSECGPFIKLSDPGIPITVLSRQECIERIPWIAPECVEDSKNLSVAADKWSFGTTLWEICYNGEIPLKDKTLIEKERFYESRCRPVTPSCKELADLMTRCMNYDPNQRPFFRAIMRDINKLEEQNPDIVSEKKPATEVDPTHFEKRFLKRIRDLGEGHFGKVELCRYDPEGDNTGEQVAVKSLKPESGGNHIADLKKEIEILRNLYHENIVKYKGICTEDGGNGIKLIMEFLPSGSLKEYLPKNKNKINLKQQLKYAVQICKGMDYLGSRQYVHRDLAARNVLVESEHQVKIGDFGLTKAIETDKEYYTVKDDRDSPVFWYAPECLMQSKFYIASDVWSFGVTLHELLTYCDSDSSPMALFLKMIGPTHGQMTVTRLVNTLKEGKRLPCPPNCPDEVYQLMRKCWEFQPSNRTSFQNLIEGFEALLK
Experimental: (§1) A panel of four LanthaScreen JAK biochemical assays (JAK1, 2, 3 and Tyk2) were carried in a common kinase reaction buffer (50 mM HEPES, pH 7.5, 0.01% Brij-35, 10 mM MgCl2, and 1 mM EGTA). Recombinant GST-tagged JAK enzymes and a GFP-tagged STAT1 peptide substrate were obtained from Life Technologies.

JAK3 = JAK3 (Homo sapiens (Human), UniProt P52333); test: LanthaScreen JAK biochemical assay, JAK3
JAK3, sequence (P52333 whole entry): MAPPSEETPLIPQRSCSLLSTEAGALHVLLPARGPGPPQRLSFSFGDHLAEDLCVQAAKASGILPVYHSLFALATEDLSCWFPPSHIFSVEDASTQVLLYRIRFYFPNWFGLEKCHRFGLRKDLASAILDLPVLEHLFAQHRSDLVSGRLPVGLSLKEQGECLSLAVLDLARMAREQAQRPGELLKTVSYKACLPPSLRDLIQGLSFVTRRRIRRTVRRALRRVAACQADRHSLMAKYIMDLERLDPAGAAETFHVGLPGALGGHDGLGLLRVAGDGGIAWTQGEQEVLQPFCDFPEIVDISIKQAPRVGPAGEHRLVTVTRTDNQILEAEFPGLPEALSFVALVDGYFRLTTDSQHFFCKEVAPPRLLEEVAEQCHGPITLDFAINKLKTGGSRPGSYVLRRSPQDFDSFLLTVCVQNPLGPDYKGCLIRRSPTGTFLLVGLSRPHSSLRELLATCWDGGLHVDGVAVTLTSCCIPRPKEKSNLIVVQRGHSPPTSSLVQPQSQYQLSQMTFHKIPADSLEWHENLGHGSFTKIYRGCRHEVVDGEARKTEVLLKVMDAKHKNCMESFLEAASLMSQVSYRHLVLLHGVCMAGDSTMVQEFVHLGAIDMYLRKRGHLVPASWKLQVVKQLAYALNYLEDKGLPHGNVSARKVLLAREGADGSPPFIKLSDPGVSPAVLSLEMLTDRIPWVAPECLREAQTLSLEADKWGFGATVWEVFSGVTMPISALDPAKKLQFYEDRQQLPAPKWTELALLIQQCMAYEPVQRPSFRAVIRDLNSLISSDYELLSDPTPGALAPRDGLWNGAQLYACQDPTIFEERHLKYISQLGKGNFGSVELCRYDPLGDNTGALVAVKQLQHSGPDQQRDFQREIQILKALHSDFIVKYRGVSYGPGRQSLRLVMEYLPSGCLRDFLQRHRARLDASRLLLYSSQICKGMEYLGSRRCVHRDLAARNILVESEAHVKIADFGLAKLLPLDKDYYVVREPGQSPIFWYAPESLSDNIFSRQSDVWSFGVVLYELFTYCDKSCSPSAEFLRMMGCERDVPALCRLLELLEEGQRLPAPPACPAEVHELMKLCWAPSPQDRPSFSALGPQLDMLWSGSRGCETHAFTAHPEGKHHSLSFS
Experimental: as §1

Tyk2 = Tyk2 (Homo sapiens (Human), UniProt P29597); test: LanthaScreen JAK biochemical assay, Tyk2; settings: read-out: Tyk 2 (pKi) (converted)
Tyk2, sequence (P29597 whole entry): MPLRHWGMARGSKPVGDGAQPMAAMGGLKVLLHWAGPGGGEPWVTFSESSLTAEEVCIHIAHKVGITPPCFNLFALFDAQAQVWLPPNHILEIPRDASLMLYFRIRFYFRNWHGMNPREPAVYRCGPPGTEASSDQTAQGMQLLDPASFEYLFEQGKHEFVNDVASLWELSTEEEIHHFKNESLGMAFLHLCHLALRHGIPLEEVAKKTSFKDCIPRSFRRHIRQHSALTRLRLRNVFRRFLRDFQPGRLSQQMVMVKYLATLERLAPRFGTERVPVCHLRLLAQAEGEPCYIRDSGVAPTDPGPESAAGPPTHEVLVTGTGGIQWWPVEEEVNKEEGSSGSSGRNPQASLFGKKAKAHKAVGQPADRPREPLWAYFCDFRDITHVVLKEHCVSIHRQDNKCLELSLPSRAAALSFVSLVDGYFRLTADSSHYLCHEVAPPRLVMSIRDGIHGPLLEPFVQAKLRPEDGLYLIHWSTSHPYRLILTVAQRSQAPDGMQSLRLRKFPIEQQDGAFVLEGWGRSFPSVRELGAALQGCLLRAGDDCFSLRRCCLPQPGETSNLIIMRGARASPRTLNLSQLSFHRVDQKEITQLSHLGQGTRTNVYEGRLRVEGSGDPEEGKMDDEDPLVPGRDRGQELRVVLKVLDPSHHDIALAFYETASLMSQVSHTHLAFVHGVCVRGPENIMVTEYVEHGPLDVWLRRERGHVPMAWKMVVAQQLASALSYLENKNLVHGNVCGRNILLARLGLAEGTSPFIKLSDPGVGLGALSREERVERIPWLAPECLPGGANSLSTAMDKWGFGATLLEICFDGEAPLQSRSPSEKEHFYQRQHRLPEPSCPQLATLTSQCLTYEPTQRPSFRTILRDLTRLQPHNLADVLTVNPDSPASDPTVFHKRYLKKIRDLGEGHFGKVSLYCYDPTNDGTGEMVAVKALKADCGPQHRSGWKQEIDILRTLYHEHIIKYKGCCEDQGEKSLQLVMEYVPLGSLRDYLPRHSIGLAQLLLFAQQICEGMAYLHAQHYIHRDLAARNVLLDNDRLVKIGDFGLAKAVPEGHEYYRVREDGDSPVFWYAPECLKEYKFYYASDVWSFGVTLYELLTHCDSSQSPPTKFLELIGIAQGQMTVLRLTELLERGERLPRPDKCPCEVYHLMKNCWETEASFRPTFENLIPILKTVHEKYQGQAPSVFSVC
Experimental: as §1

[2] = Determination of absorption in cannulated rats; format: in vivo, Sprague Dawley rats; settings: rat; for bioavailability: Sprague Dawley, plasma (jugular vein), oral vs IV, read-out: oral bioavailability (F %); for absorption at the portal vein (Fa %): oral
Experimental: Oral bioavailability (F %), fraction absorbed (Fa %) and fraction escaping hepatic clearance (Fh %) were determined in Sprague Dawley rats from the following two studies:
(1) Pharmacokinetics in rats following an IV dose of test compound: Following IV dosing, plasma samples were typically collected from 0-6 hr. Drug levels were determined using an LC-MS-MS method. The resulting drug levels were used to compute the IV pharmacokinetic parameters: AUC IV and Dose IV.
(2) Rats that have been cannulated in their portal vein (PV) and also in their jugular vein (JV) were dosed orally with test compound. Following oral dosing, plasma samples were typically collected from 0-6 hr from both the portal vein and the jugular vein. Drug levels were determined using an LC-MS-MS method. The resulting drug levels were used to compute the following pharmacokinetic parameters: AUC PO PV, AUC PO JV, and Dose PO.
Using data derived from the above studies, the oral bioavailability F %, and the quantities Fa % and Fh % were calculated from the following formulas: F %=(AUC PO JV/AUC IV)*(Dose IV/Dose PO)*100 Fa %=(AUC PO PV/AUC IV)*(Dose IV/Dose PO)*100 Fh %=AUC PO JV/AUC PO PV
AUC PO JV=Area under the curve following oral dose and plasma collected from the jugular vein
AUC PO PV=Area under the curve following oral dose and plasma collected from the portal vein
AUC IV=Area under the curve following an intravenous dose
Dose IV=Intravenous Dose in mg/kg
Dose PO=Oral Dose in mg/kg

JAK2 = JAK2 (Homo sapiens (Human), UniProt O60674); test: LanthaScreen JAK biochemical assay, JAK2
JAK2, sequence (O60674 whole entry): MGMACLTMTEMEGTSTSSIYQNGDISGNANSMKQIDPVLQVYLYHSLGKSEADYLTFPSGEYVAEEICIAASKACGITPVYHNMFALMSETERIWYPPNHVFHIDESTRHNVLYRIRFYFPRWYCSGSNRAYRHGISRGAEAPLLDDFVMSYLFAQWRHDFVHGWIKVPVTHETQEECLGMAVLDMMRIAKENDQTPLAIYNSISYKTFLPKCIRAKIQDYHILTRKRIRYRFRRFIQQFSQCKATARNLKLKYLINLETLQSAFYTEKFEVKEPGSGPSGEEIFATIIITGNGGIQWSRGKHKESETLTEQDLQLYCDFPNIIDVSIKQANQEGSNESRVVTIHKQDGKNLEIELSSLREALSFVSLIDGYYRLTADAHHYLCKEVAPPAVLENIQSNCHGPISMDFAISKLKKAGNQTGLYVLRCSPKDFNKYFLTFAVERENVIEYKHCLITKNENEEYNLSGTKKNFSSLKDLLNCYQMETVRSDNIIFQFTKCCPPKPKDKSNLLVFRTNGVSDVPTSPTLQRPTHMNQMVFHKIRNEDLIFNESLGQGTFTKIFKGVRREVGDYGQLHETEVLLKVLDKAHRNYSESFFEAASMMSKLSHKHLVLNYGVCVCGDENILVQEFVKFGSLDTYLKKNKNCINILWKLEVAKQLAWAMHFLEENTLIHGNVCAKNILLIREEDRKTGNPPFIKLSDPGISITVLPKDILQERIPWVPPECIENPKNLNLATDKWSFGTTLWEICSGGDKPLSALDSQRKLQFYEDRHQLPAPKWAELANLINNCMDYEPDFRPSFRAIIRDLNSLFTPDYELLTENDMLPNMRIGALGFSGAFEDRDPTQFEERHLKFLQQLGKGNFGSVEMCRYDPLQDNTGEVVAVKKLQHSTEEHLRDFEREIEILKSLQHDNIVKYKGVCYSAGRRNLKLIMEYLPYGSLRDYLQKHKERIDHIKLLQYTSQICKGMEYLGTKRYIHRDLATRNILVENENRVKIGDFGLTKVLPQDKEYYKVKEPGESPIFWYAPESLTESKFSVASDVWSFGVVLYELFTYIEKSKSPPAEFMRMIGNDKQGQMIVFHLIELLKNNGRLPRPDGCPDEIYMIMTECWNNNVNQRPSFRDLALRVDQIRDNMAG
Experimental: as §1

[3] = tested on: oxazolone-induced colitis; test: Mouse model of oxazolone-induced colitis; format: in vivo, BALB/C mice; settings: mouse, PO, 1, 3, and/or 10 mg/kg BID
Experimental: Oxazolone-induced colitis is an experimental model that has a histological resemblance to human ulcerative colitis (Heller et al. […], 2002, 17, 629-638). Adult BALB/C mice from Harlan were used in the assay. On day 1, animals were lightly anesthetized with isoflurane and the hairs between the shoulder were carefully removed before oxazolone (4%, 150 μL, 4:1 acetone: olive oil formulation) or vehicle solution was slowly applied for skin sensitization. Seven days after skin sensitization, the mice were fasted overnight, anesthetized with isoflurane inhalation, and a 1 mL syringe equipped with a 3.5-F catheter, filled with oxazolone solution, was inserted carefully about 4 cm into the colon of the mouse. Following insertion, 50 μL of the oxazolone solution (1%, 1:1 ethanol:water formulation) was injected very slowly (over 30 sec using an injection pump) into the colon. The catheter was removed and the mice were held vertically (head down) for 2 min to ensure that the entire oxazolone solution remained inside the colon. Drug treatment (PO, BID or TID) or vehicle was initiated a day prior to the oxazolone intrarectal (IR) challenge. Two-day post oxazolone intrarectal challenge, the Disease Activity Index (DAI) was assessed by treatment-blinded experimenters for each mouse according to the criteria score: stool consistency score (0, normal; 2, loose; 4, diarrhea), gross bleeding score (0, absence; 2, blood tinged; 4, presence), and weight loss score (0, none; 1, 1%-5%; 2, 5%-10%; 3, 10%-20%; 4, more than 20%); DAI=average of (stool consistency score+gross bleeding score+weight loss score).
Selected compounds of the invention were tested in the assay. Efficacy in the model is evidenced by a decrease in DAI score as compared with the score from vehicle treated animals.

[4] = tested on: IL-13 induced STAT6 phosphorylation in HT-29 human colorectal adenocarcinoma cells; test: Cellular JAK potency assay: inhibition of IL-13 induced STAT6 phosphorylation; format: cell-based; settings: Homo sapiens; IL-13 induced STAT6 phosphorylation, HT-29 cells; read-out: HT-29 (pIC50) (converted)
[5] = Dynamic moisture sorption assessment; format: physicochemical; settings: for weight gain: humidity range of 5% to 90% relative humidity, 25° C.
Experimental: Dynamic moisture sorption (DMS) measurement was performed using a VTI atmospheric microbalance, SGA-100 system (VTI Corp., Hialeah, Fla. 33016). A weighed sample was used and the humidity was lowest possible value (close to 0% RH) at the start of the analysis. The DMS analysis consisted of an initial drying step (0% RH) for 120 minutes, followed by two cycles of sorption and desorption with a scan rate of 5% RH/step over the humidity range of 5% RH to 90% RH. The DMS run was performed isothermally at 25° C.

Row | Structure (SMILES) | Ki (Tyk2) | bioavailability [2] | absorption at the portal vein (Fa %) [2] | JAK 2 (pKi) (JAK2) | decrease in DAI score as compared with vehicle treated animals [3] | IC50 [4] | weight gain [5] | also measured
1 | C[C@@H]1CCN(C(=O)CC#N)C[C@@H]1N(C)c1ncnc2[nH]ccc12 [tofacitinib, reference compound] |  |  |  |  |  |  |  | treatment effect on B and T cell populations [1]: No treatment effect
2 | COc1cc(Nc2cc(CO)[nH]n2)nc(N(C)[C@@H]2C[C@H]3CC[C@@H](C2)N3S(=O)(=O)N2CC(C#N)C2)n1 [Example 1, 1-(((1R,3s,5S)-3-((4-((5-(Hydroxymethyl)-1H-pyrazol-3-yl)amino)-6-methoxypyrimidin-2-yl)(methyl)amino)-8-azabicyclo[3.2.1]octan-8-yl)sulfonyl)azetidine-3-carbonitrile] | 0.1 to 1 nM | < 5% | less than 25% | A (A represents a pKi value≥10 (Ki≤0.1 nM)) | did not exhibit a statistically significant decrease | 31.6 to 200 nM |  | JAK 1 (pKi) (JAK1): A (A represents a pKi value≥10 (Ki≤0.1 nM)); Ki (JAK3): 1 to 10 nM
3 | COc1cc(Nc2cc(CO)[nH]n2)nc(N(C)[C@@H]2C[C@H]3CCC[C@@H](C2)N3S(=O)(=O)N2CC(C#N)C2)n1 [Form II, 1-(((1R,3s,5S)-3-((4-((5-(hydroxymethyl)-1H-pyrazol-3-yl)amino)-6-methoxypyrimidin-2-yl)(methyl)amino)-9-azabicyclo[3.3.1]nonan-9-yl)sulfonyl)azetidine-3-carbonitrile] |  |  |  |  |  |  | about 1.2% | hygroscopicity ([5]; 5% to 90% relative humidity): slightly hygroscopic
4 | COCCS(=O)(=O)N1[C@@H]2CCC[C@H]1C[C@H](N(C)c1nc(Nc3cc(CO)[nH]n3)cc(OC)n1)C2 [Example 4, (3-((6-methoxy-2-(((1R,3s,5S)-9-((2-methoxyethyl)sulfonyl)-9-azabicyclo[3.3.1]nonan-3-yl)(methyl)amino)pyrimidin-4-yl)amino)-1H-pyrazol-5-yl)methanol] | 0.1 to 1 nM | < 5% | greater than 40% | A (A represents a pKi value≥10 (Ki≤0.1 nM)) | statistically significant decrease | 31.6 to 200 nM |  | Ki (JAK1; read-out: JAK 1 (pKi) (converted)): 0.1 to 1 nM; Ki (JAK3; read-out: JAK 3 (pKi) (converted)): 1 to 10 nM
5 | COc1cc(Nc2cc(CO)[nH]n2)nc(N(C)[C@@H]2C[C@H]3CCC[C@@H](C2)N3S(=O)(=O)N2CC(C#N)C2)n1 [Form I, 1-(((1R,3s,5S)-3-((4-((5-(hydroxymethyl)-1H-pyrazol-3-yl)amino)-6-methoxypyrimidin-2-yl)(methyl)amino)-9-azabicyclo[3.3.1]nonan-9-yl)sulfonyl)azetidine-3-carbonitrile] |  |  |  |  |  |  | less than 0.4% | 
